Literature values as cited in patent US20130225560A1, “Treatment of Cognitive Disorders with Certain Alpha-7 Nicotinic Acid Receptor Agonists in Combination with Acetylcholinesterase Inhibitors” (priority 2010, published 2013).

Columns and labels:
alpha-7 receptor [1] = target: T1, alpha-7 receptor (Homo sapiens, UniProt P36544)
alpha-7 receptor [2] = target: T1, alpha-7 receptor; remark: listed apart in the source
[3] = system: other nicotinic receptors
[4] = system: murine model that exhibits aspects of schizophrenia; conditions: alone and in combination with clozapine; Hauser et al. 2009

T1 sequence (P36544 23-502): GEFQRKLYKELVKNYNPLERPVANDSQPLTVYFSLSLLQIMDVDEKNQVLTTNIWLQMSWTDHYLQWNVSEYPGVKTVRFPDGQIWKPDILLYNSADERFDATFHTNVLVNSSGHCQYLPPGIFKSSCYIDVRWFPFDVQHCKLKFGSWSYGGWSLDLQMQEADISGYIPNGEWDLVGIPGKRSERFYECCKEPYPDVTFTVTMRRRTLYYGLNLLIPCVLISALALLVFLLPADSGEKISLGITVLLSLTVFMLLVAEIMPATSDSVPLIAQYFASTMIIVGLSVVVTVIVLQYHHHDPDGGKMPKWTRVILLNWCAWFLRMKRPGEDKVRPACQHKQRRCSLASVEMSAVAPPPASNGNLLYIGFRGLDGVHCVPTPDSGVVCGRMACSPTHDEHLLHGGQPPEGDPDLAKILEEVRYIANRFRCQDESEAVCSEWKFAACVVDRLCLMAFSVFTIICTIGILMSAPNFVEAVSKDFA

O=C(NC1C2CCN(CC2)C1Cc1cccnc1)c1cc2ccccc2o1 (centres unmarked) [TC-5619, N-[2-(pyridin-3-ylmethyl)-1-azabicyclo[2.2.2]oct-3-yl]-1-benzofuran-2-carboxamide]
affinity for the alpha-7 receptor (alpha-7 receptor [1]): very high affinity | agonist activity at the alpha-7 receptor (alpha-7 receptor [2]): full agonist | activity at other nicotinic receptors [3]: little or no activity | impaired pre-pulse inhibition (PPI), models positive symptoms [4]: correct impaired pre-pulse inhibition (PPI) | impaired social behavior, models negative symptoms [4]: correct impaired pre-pulse inhibition (PPI) and social behavior
